The NIST ThermoML archive (doi:10.1016/j.jct.2010.04.001)
“And” between values parts separate entries of the source, which are not always exact repeats. Identical values can stand only once. Numbers after ± are expanded uncertainties.

Conditions: Crystal, Calculated from knudsen effusion weight loss

O=C(c1ccc[nH]1)C(Cl)(Cl)Cl [2-trichloroacetyl-1H-pyrrole]
Conditions	vapor or sublimation pressure
295.12 K	0.000103 ± 5e-06 kPa and 9.92e-05 ± 5e-06 kPa and 0.000101 ± 5e-06 kPa
297.17 K	0.000132 ± 7e-06 kPa and 0.000129 ± 6e-06 kPa
299.22 K	0.000169 ± 8e-06 kPa and 0.000165 ± 8e-06 kPa and 0.000162 ± 8e-06 kPa
301.14 K	0.000213 ± 1.1e-05 kPa and 0.000218 ± 1.1e-05 kPa
303.23 K	0.000274 ± 1.4e-05 kPa and 0.000272 ± 1.4e-05 kPa and 0.000268 ± 1.3e-05 kPa
305.2 K	0.000344 ± 1.7e-05 kPa and 0.000336 ± 1.7e-05 kPa and 0.000335 ± 1.7e-05 kPa
307.1 K	0.000434 ± 2.2e-05 kPa and 0.00043 ± 2.2e-05 kPa and 0.000424 ± 2.1e-05 kPa
309.13 K	0.000539 ± 2.7e-05 kPa and 0.000531 ± 2.7e-05 kPa and 0.000527 ± 2.6e-05 kPa
311.21 K	0.000674 ± 3.4e-05 kPa and 0.000661 ± 3.3e-05 kPa and 0.000652 ± 3.3e-05 kPa
313.11 K	0.000861 ± 4.3e-05 kPa and 0.000843 ± 4.2e-05 kPa and 0.000837 ± 4.2e-05 kPa
315.16 K	0.00106 ± 0.00011 kPa and 0.001043 ± 0.00011 kPa and 0.001028 ± 0.0001 kPa
317.2 K	0.001327 ± 0.00014 kPa and 0.001289 ± 0.00014 kPa and 0.00127 ± 0.00013 kPa

O=C(c1ccc[nH]1)C(F)(F)F [2-trifluoroacetylpyrrole]
Conditions	vapor or sublimation pressure
263.19 K	0.000433 ± 2.2e-05 kPa and 0.000414 ± 2.1e-05 kPa and 0.000406 ± 2e-05 kPa
264.14 K	0.00048 ± 2.4e-05 kPa and 0.000469 ± 2.3e-05 kPa
265.11 K	0.000533 ± 2.7e-05 kPa and 0.000531 ± 2.7e-05 kPa
266.12 K	0.000597 ± 3e-05 kPa and 0.00064 ± 3.2e-05 kPa and 0.000623 ± 3.1e-05 kPa
267.12 K	0.000716 ± 3.6e-05 kPa and 0.00069 ± 3.5e-05 kPa and 0.00067 ± 3.4e-05 kPa
268.12 K	0.000809 ± 4.1e-05 kPa and 0.000796 ± 4e-05 kPa and 0.000771 ± 3.9e-05 kPa
269.11 K	0.0009 ± 4.5e-05 kPa and 0.000894 ± 4.5e-05 kPa and 0.000866 ± 4.3e-05 kPa
270.11 K	0.001022 ± 0.0001 kPa and 0.000993 ± 5e-05 kPa
271.13 K	0.001147 ± 0.00012 kPa and 0.00113 ± 0.00012 kPa and 0.001101 ± 0.00011 kPa
